This note sets out measurements from patent US10413583B2, “Synthetic substrates for enzymes that catalyze reactions of modified cysteines and related methods” (The University of Chicago, priority 2016, dated 2019).

Structures are written as SMILES.

The subject of this test is HEK293T cells. Kind of test: Fluorescence imaging of RDP-1 and RDP-2 with HEK293T cells. The test is classed as cell-based, human. Particulars: for change in depalmitoylation activity from RDP-1: 10 μM inhibitor 30 min. As for the experimental part: HEK293T were plated with […] of DMEM (Gibco, Gaithersburg, Md., United States of America; High Glucose, Glutamax, 10% FBS) a four well chambered imaging dish (D35C4-20-1.5-N, Cellvis, Mountain View, Calif., United States of America) which were precoated with 4 μg Poly-D-lysine (30-70 kilodalton (KDa), Alfa Aesar, Haverhill, Mass., United States of America) for 2 h at room temperature or overnight at 4° C. and grown to ca. 80% confluence prior to imaging. 30 min before the addition of the RDP, the cell culture media was removed and cells were washed with 500 μL of serum-free DMEM (Gibco, Gaithersburg, Md., United States of America, High Glucose, Glutamax, no FBS). The media was then replaced with 500 μL of serum-free DMEM containing 100 nM Mitotracker Deep Red (Thermo Fisher Scientific, Waltham, Mass., United States of America; to assist in focusing and processing) and either 0.1% DMSO carrier as a control or Palm B, ML348, or ML349 in DMSO and incubated for 30 min at 37° C. and 5% CO2. The media was removed, the cells were washed with 500 μL of Live Cell Imaging Solution (Thermo Fisher Scientific, Waltham, Mass., United States of America), and 500 μL of 1 μM RDP-1 or RDP-2 along with the appropriate inhibitor or DMSO as control in Live Cell Imaging Solution was added to each well. After incubation for 10 min at 37° C. and 5% CO2, the cells were washed with 500 μL Live Cell Imaging Solution and 500 μL of Live Cell Imaging Solution containing DMSO or the appropriate inhibitor was added to the cells immediately before images were obtained on an inverted epi-fluorescence microscope (Olympus IX83; Olympus Corporation, Tokyo, Japan) attached with EMCCD camera (Photometrics EVOLVE™ Delta; Photometrics, Tucson, Ariz., United States of America) with 40× oil objective (N/A 1.3) for RDP-1 (excitation filter 1 430/24 nm, dichroic chroma 89007, emission filter 1 470/24 nm, exposure time 100 ms, EM gain 80, excitation filter 2 480/20 nm, dichroic chroma 49014, emission filter 2 575/40 nm, exposure time 70 ms, EM gain 50) or for RDP-2 (excitation filter 1 430/24 nm, dichroic chroma 89007, emission filter 1 470/24 nm, exposure time 70 ms, EM gain 50, excitation filter 2 480/20, dichroic chroma 49014, emission filter 2 575/40 nm, exposure time 50 ms, EM gain 30), brightfield (exposure time 50 ms, EM gain 30), and MitoTracker Deep Red: (excitation filter 640/30 nm, emission filter 705/72 nm, dichroic chroma 89016, exposure time 15 ms, EM gain 15). Analyses were performed in ImageJ as described below. Each experiment was repeated at least three separate times with identical results.
The probe channel data were expressed as a ratio of the blue channel divided by the green channel and normalized to the average fluorescence intensity of the control conditions. To eliminate errors from autofluorescence, the images were thresholded using the bluer channel images at the same minimum level that included the maximum number of cells in focus (as determined visually by the mitocondrial dye) while limiting the signal from areas where cells are not present. The average value of all nonzero pixels from the blue channel:green channel ratio image were calculated in ImageJ for three different measurements from each experiment. The percent deprotected was estimated by imaging RDP-1/2 in buffer (20 mM HEPES, 150 mM NaCl, 0.1% Triton X-100, pH 7.4, 0.1% DMSO) and for dye deprotected with 20 mM DTT in buffer (20 mM HEPES, 150 mM NaCl, 0.1% Triton X-100, pH 7.4, 0.1% DMSO) for 1 h at room temperature before aliquoted into individual tubes and stored at −80° C. A fresh aliquot of the solution was thawed for each experiment and diluted to 250 nM (RDP-1) or 500 nM (RDP-2) in buffer (20 mM HEPES, 150 mM NaCl, 0.1% Triton X-100, pH 7.4, 10 mM DTT) and allowed to equilibrate for 30 m before being imaged. […]

`CCCCCCCCCC[C@@H]1C(=O)O[C@H]1CCc1ccc(OC)c(OC)c1` [PalmB, palmostatin B]: the “decrease of measured depalmitoylation activity, RDP-1” value (20 μM PalmB 30 min pretreatment, 1 μM RDP-1) was “almost in half”. Besides, the “decrease of measured depalmitoylation activity, RDP-2” value (20 μM PalmB 30 min pretreatment, 1 μM RDP-2) is “almost in half”.
In the case of `O=C(CN1CCN(C(=O)c2ccco2)CC1)Nc1cc(C(F)(F)F)ccc1Cl` [ML348], the “decrease in depalmitoylation activity, RDP-2” value (5 μM ML348 30 min, 1 μM RDP-2) is given as “about 30%”. For the setting “1 μM RDP-1”, the “change in depalmitoylation activity from RDP-1” value was “slight increase”.
As to `COc1ccc(N2CCN(C(=O)c3cc4c(s3)-c3ccccc3S(=O)(=O)C4)CC2)cc1` [ML349], the “increase in depalmitoylation activity, RDP-2” value (5 μM ML349 30 min, 1 μM RDP-2) is recorded as “about 12%”. Also, the “change in depalmitoylation activity from RDP-1” value (1 μM RDP-1) is “slight increase”.
